Test results published in ChEMBL document CHEMBL3091360, “Homosecoiridoid alkaloids with amino acid units from the flower buds of Lonicera japonica” (J Nat Prod, 2013).
Active and inactive are the calls of the source. No cut-off for these calls is given here.

What was measured:
MCF7 = assay: Cytotoxicity against human MCF7 cells at 10 uM after 96 hrs by MTT assay; format: functional, cell-based
BGC-823 = assay: Cytotoxicity against human BGC823 cells at 10 uM after 96 hrs by MTT assay; format: functional, cell-based
[1] = Antiinflammatory activity in rat polymorphonuclear leukocytes assessed as inhibition of PAF-induced release of glucuronidase at 10 uM; format: functional
KETR3 = assay: Cytotoxicity against human Ketr3 cells at 10 uM after 96 hrs by MTT assay; format: functional, cell-based
A549 = assay: Cytotoxicity against human A549 cells at 10 uM after 96 hrs by MTT assay; format: functional, cell-based
[2] = test system: Human immunodeficiency virus 1; assay: Antiviral activity against HIV1 infected in human 293T cells expressing VSV-G assessed as inhibition of viral p24 production at 10 uM after 48 hrs by ELISA; format: functional, organism-based
Bel-7402 = assay: Cytotoxicity against human Bel7402 cells at 10 uM after 96 hrs by MTT assay; format: functional, cell-based
HCT-8 = assay: Cytotoxicity against human HCT8 cells at 10 uM after 96 hrs by MTT assay; format: functional, cell-based

Structure (SMILES) | Activity (MCF7) | Activity (BGC-823) | inhibition at 10 µM [1] | Activity (KETR3) | Activity (A549) | inhibition [2] | Activity (Bel-7402) | Activity (HCT-8)
Nc1ncnc2c1ncn2[C@@H]1O[C@H](CO)[C@@H](O)[C@H]1O [ADENOSINE] | inactive | inactive | < 30% | inactive | inactive | inactive | inactive | inactive
C[C@@H]1C(=O)O[C@H]2[C@H](O)[C@@]34[C@H]5C[C@@H](C(C)(C)C)[C@]36[C@@H](OC(=O)[C@@H]6O)O[C@@]4(C(=O)O5)[C@@]12O [GINKOLIDE B] | inactive | inactive | 78% | inactive | inactive | inactive | inactive | inactive
C=C[C@H]1[C@H](O[C@@H]2O[C@H](CO)[C@@H](O)[C@H](O)[C@H]2O)OC=C(C(=O)OC)[C@H]1/C=C/c1ccc[n+]([C@@H](C)C(=O)[O-])c1 | inactive | inactive | 72.3% | inactive | inactive | inactive | inactive | inactive
O=C(O)/C=C/c1ccc(O)c(O)c1 [CAFFEIC ACID] | inactive | inactive | 40.3% | inactive | inactive | inactive | inactive | inactive
O=C(O)/C=C/c1ccc(O[C@@H]2O[C@H](CO)[C@@H](O)[C@H](O)[C@H]2O)c(O)c1 | inactive | inactive | < 30% | inactive | inactive | inactive | inactive | inactive
C=C[C@H]1[C@H](O[C@@H]2O[C@H](CO)[C@@H](O)[C@H](O)[C@H]2O)OC=C(C(=O)[O-])[C@H]1/C=C\c1ccc[n+]([C@H](Cc2ccccc2)C(=O)O)c1 | inactive | inactive | < 30% | inactive | inactive | inactive | inactive | inactive
COc1cc(/C=C/CO)cc(OC)c1O[C@@H]1O[C@H](CO)[C@@H](O)[C@H](O)[C@H]1O [SYRINGIN] | inactive | inactive | < 30% | inactive | inactive | inactive | inactive | inactive
O=C(O)c1cc(O[C@@H]2O[C@H](CO)[C@@H](O)[C@H](O)[C@H]2O)ccc1O | inactive | inactive | < 30% | inactive | inactive | inactive | inactive | inactive
COC(=O)[C@]1(O)C[C@@H](O)[C@@H](O)[C@H](OC(=O)/C=C/c2ccc(O)c(O)c2)C1 [CHLOROGENIC ACID METHYL ESTER] | inactive | inactive | < 30% | inactive | inactive | inactive | inactive | inactive
O=C(OCc1ccccc1)c1c(O)cccc1O[C@@H]1O[C@H](CO)[C@@H](O)[C@H](O)[C@H]1O | inactive | inactive | < 30% | inactive | inactive | inactive | inactive | inactive
O=C(/C=C/c1ccc(O)c(O)c1)O[C@@H]1C[C@@](O)(C(=O)O)C[C@@H](O)[C@H]1O | inactive | inactive | < 30% | inactive | inactive | inactive | inactive | inactive
O=C(/C=C/c1ccc(O)c(O)c1)O[C@H]1[C@H](O)C[C@@](O)(C(=O)O)C[C@H]1O | inactive | inactive | < 30% | inactive | inactive | inactive | inactive | inactive
O=C(/C=C/c1ccc(O)c(O)c1)O[C@@H]1C[C@](O)(C(=O)O)C[C@@H](O)[C@H]1O [CHLOROGENIC ACID] | inactive | inactive | < 30% | inactive | inactive | inactive | inactive | inactive
O=C(O)c1ccc(O)c(O)c1 [PROTOCATECHUIC ACID] | inactive | inactive | < 30% | inactive | inactive | inactive | inactive | inactive
COC(=O)C1=CO[C@@H]2C[C@H]1C[C@@H]1C(C(=O)OC)=CO[C@@H](O[C@@H]3O[C@H](CO)[C@@H](O)[C@H](O)[C@H]3O)[C@@H]12 | inactive | inactive | < 30% | inactive | inactive | inactive | inactive | inactive
COc1cc(C(=O)O)ccc1O[C@@H]1O[C@H](COC(=O)c2ccccc2)[C@@H](O)[C@H](O)[C@H]1O | inactive | inactive | < 30% | inactive | inactive | inactive | inactive | inactive
C=C[C@H]1[C@H](O[C@@H]2O[C@H](CO)[C@@H](O)[C@H](O)[C@H]2O)OC=C(C(=O)OC)[C@H]1/C=C/CC(=O)OC | inactive | inactive | < 30% | inactive | inactive | inactive | inactive | inactive
C=C[C@H]1[C@H](O[C@@H]2O[C@H](CO)[C@@H](O)[C@H](O)[C@H]2O)OC=C(C(N)=O)[C@H]1/C=C/c1ccc[n+]([C@@H](CCC(=O)O)C(=O)[O-])c1 | inactive | inactive | < 30% | inactive | inactive | inactive | inactive | inactive
